“Also recorded” adds a separate entry of the source. Read-outs that look alike come from different tables or passages of the source.
Assays:
Aggrecan = assay: Anabolic gene expression in normal human primary chondrocytes, quantitative real-time PCR (aggrecan); type: cell-based; settings: carnosol at 1 µmol/L; for activity at 1 µM: Chondrocyte, normal human chondrocytes (knee), differentiation medium
Method: (§1) Influence of carnosol on the expression of genes involved in the build-up and break-down of cartilage. Carnosol of >= 95% purity prepared as disclosed in example 1 was used.
(§2) The effect of carnosol on the expression of human collagen, aggrecan and MMP genes was measured in vitro in normal human chondrocytes (derived from knee). Control experiments without carnosol were done concomitantly to compare the expression of these genes or proteins to that in un-stimulated cells. The effect of carnosol (at 1 µmol/L) on the expression of anabolic genes (see Table B) was measured in normal human chondrocytes obtained from the knee of healthy donors (HNAC-kn, Cambrex, #CC2250). These primary chondrocytes were passaged in vitro not more than 4 times, before being used for experiments. Cells were cultured in differentiation medium (Cambrex, #CC.3225) for 5 - 10 days. Total RNA was extracted from cultured cells and reverse-transcribed; expression levels of distinct genes were determined by quantitative real-time PCR as detailed by Richard et al. Mol. Nutr. Food Res. 49, 431-442, (2005).
(§3) Effect of carnosol on anabolic gene expression in normal human primary chondrocytes Numbers indicate the level of gene expression (in % of control-treated cells)

Collagen I = assay: Anabolic gene expression in normal human primary chondrocytes, quantitative real-time PCR (collagen I); type: cell-based; settings: carnosol at 1 µmol/L; for activity at 1 µM: Chondrocyte, normal human chondrocytes (knee), differentiation medium
Method: as §1, §2, §3

Collagen II [1] = assay: Anabolic gene expression in normal human primary chondrocytes, quantitative real-time PCR (collagen II); type: cell-based; settings: carnosol at 1 µmol/L; for activity at 1 µM: Chondrocyte, normal human chondrocytes (knee), differentiation medium
Method: as §1, §2, §3

SOX-5 = assay: Anabolic gene expression in normal human primary chondrocytes, quantitative real-time PCR (SOX-5); type: cell-based; settings: carnosol at 1 µmol/L; for activity at 1 µM: Chondrocyte, normal human chondrocytes (knee), differentiation medium
Method: as §1, §2, §3

SOX-9 = assay: Anabolic gene expression in normal human primary chondrocytes, quantitative real-time PCR (SOX-9); type: cell-based; settings: carnosol at 1 µmol/L
Method: as §1, §2, §3

Collagen II [2] = assay: Cellular collagen II production in chondrocytes, ELISA; type: cell-based, human; settings: 20 µmol/L carnosol; for Effect of carnosol on protein expression: 10 days of culture, collagen II, result in words
Method: The increased build-up of the ECM has been directly shown by measuring the production of collagen II. To this aim, chondrocytes were cultured in differentiation medium containing 20 µmol/L carnosol for 10 days. Cellular collagen II was then quantified by enzyme linked immunosorbent assay (ELISA). […]

[3] = normal human chondrocytes, result in words

In the case of `CC(C)c1cc2c(c(O)c1O)[C@@]13CCCC(C)(C)[C@@H]1C[C@@H]2OC3=O` [Carnosol, 2H-9,4a-(Epoxymethano)phenanthren-12-one], the activity at 1 µM (Aggrecan; 120 h, 5 days culture, read-out: level of gene expression, Aggrecan, 5 days culture) is reported as 139%, the activity at 1 µM (Aggrecan; 240 h, 10 days culture, read-out: level of gene expression, Aggrecan, 10 days culture) is reported as 97% and the “effect of carnosol on gene expression, Aggrecan” value (Aggrecan; [3]) is reported as “substantially increased”. The activity at 1 µM (Collagen I; 120 h, 5 days culture, read-out: level of gene expression, Collagen I, 5 days culture) was 207%, the activity at 1 µM (Collagen I; 240 h, 10 days culture, read-out: level of gene expression, Collagen I, 10 days culture) was 98% and the “effect of carnosol on gene expression, Collagen I” value (Collagen I; [3]) was “Increased”. The activity at 1 µM (Collagen II [1]; 120 h, 5 days culture, read-out: level of gene expression, Collagen II, 5 days culture) was 128%, the activity at 1 µM (Collagen II [1]; 240 h, 10 days culture, read-out: level of gene expression, Collagen II, 10 days culture) was 189% and the “effect of carnosol on gene expression, Collagen II” value (Collagen II [1]; [3]) was “substantially increased”. For the same molecule, the activity at 1 µM (SOX-5; 120 h, 5 days culture, read-out: level of gene expression, SOX-5, 5 days culture) was 85%, the activity at 1 µM (SOX-5; 240 h, 10 days culture, read-out: level of gene expression, SOX-5, 10 days culture) was 126% and the “effect of carnosol on gene expression, SOX-5” value (SOX-5; [3]) was “enhanced; also recorded: Increased”. The mrna remaining at 1 µM (SOX-9; Chondrocyte, 120 h, normal human chondrocytes (knee), differentiation medium, 5 days culture, read-out: level of gene expression, SOX-9, 5 days culture) was 112%, the SOX-9 gene expression, % of control at 1 µM (SOX-9; Chondrocyte, 240 h, normal human chondrocytes (knee), differentiation medium, 10 days culture, read-out: level of gene expression, SOX-9, 10 days culture) was 93% and the “effect of carnosol on gene expression, SOX-9” value (SOX-9; [3]) was “enhanced; also recorded: Increased”. The “Effect of carnosol on protein expression” value (Collagen II [2]) was “Increased”, the “Effect of carnosol on protein expression” value (Collagen II [2]; listed as carnosol) was “significantly increased” and the activity at 20 µM (Collagen II [2]; Homo sapiens, Chondrocyte, 240 h, 10 days of culture in differentiation medium, cellular collagen II by ELISA, vehicle = 100) was 129%.
